The test system of assay [1] is mesenchymal stem cells derived from human umbilical cord. The assay can be described thus: Induction of pluripotency stem cells from mesenchymal stem cells (colony formation). In kind it is cell-based. The note with it: DMEM F-12 basic medium plus 0.1 v/v % energy water. The protocol:
An experiment for measuring induction ability of pluripotency stem cells from mesenchymal stem cells derived from human umbilical cord according to a concentration of the phlorotannin fraction prepared in Example 1-1 was performed. In a control group, DMEM F-12 (Gibco) as a dedicated medium of MSC, 10% FBS, 100 unit/ml penicillin, and 50 μg/ml streptomycin were used as a basic medium (Normal), and in an experimental group, mesenchymal stem cells derived from human which was subjected to three sub-cultures were used and phlorotannin fractions having concentrations of 1 μg/ml, 20 μg/ml, 50 μg/ml, 100 μg/ml, 400 μg/ml, 800 μg/ml, and 1000 μg/ml and 0.1 v/v % energy water (purified deionized water containing SiO2, Al2O3, TiO3, Fe2O3, CaO, Na2O, K2O, and LiO, STC) were added in the medium. The mesenchymal stem cells derived from human umbilical cord were isolated and washed and mononuclear cells were inoculated in a 6-well plate (dish) with 1×10^4 cells and maintained and incubated at 37° C. and 5% CO2.
An experiment for measuring induction ability of pluripotency stem cells from mesenchymal stem cells derived from human according to a concentration of compound 1 among the compounds isolated in Example 1-2 was performed. […]

Assay [2] has as its system OCT4, SOX2, SSEA-4, and AP. The assay can be described thus: Immunochemical / AP staining of induced colonies for pluripotency stem cell-specific markers. In kind it is cell-based, human. Conditions: confocal microscopy; antibodies for OCT4, SOX2, SSEA-4; AP fluorogenic dye. The protocol:
With respect to the pluripotency stem cells induced by the method of the present invention, whether to express stage-specific embryonic antigen4 (SSEA-4), alkaline phosphatase (AP), OCT4, and SOX2 as specific proteins to embryonic stem cells was analyzed by using antibodies thereof and an immunochemical staining method. During the staining process, cells were first fixed by using 4% paraformaldehyde and washed with PBS, and blocked with a 1% BSA solution. The cells were treated with primary antibodies for OCT4, SOX2, and SSEA-4 and reacted at 4° C. for 18 hours, and then washed with PBS, treated with secondary antibodies with fluorescence (FITC) to the primary antibodies, and reacted at room temperature for 1 hour. The cells were washed with PBS and then the expression was analyzed by using a confocal microscope. […] AP staining was performed with an alkaline phosphatase cell-permeable fluorogenic substrate dye, the AP fluorogenic dye was diluted in a DMEM F-12 culture solution to be treated in colonies, and then reacted for 20 to 30 min, washed with the DMEM F-12 culture solution two times, and the expression was analyzed by using a confocal microscope, and the result was illustrated in FIG. 17. […]

SMILES strings stand for the structures. Where “and” joins values, the source holds several entries; their conditions need not be identical. Equal entries are not always repeated.

For `Oc1cc(O)cc(Oc2c(O)cc(O)c3c2Oc2c(O)cc(O)c(-c4c(O)cc(O)c5c4Oc4c(O)cc(Oc6c(O)cc(O)cc6O)c(Oc6cc(O)cc(O)c6)c4O5)c2O3)c1` [compound 1, 2-O-(2,4,6-trihydroxyphenyl)-6,6′-bieckol], in assay [1] (at the colony-forming concentrations), the “time after which colony formation was observed” value is given as 14 days. Besides, the “concentration at which colonies were formed” value in assay [1] (tested 1, 20, 50, 100, 400, 800, 1000 μg/ml, colonies only at stated concentrations) was 50 µg/mL and 100 µg/mL. The “staining of colonies by pluripotency stem cell-specific markers” value in assay [2] was “stained by OCT4, SOX2, SSEA-4, and AP”.
